Reference: article PMC6321136, “Combined In Vitro Studies and in Silico Target Fishing for the Evaluation of the Biological Activities of Diphylleia cymosa and Podophyllum hexandrum” (Molecules, 2018)
Read-outs that look alike come from different tables or passages of the source.

What was measured:
[1] = test system: ADMET, Cytochrome P450 3A4; design: method as in PubChem Bioassay AID 885; details: ref PubChem Bioassay AID 885; cited from earlier work
[2] = test system: ADMET, Cytochrome P450 3A4; design: method as in PubChem Bioassay AID 884; details: ref PubChem Bioassay AID 884; cited from earlier work
[3] = test system: Agonist, glucocorticoid receptor (GR); design: method as in PubChem Bioassay AID 720719; details: ref PubChem Bioassay AID 720719; cited from earlier work
[4] = test system: Antagonist, thyroid receptor (TR); design: method as in PubChem Bioassay AID 743067; details: ref PubChem Bioassay AID 743067; cited from earlier work
[5] = molecular target: T1, acetylcholinesterase enzyme (Electropardus electricous type VI-S) (Electrophorus electricus, UniProt O42275); assay: AChE bioautographic assay (TLC); format: biochemical; design: key: -: not active; +: slight inhibition; ++++: strong inhibition; details: intensity of white bands
T1 construct: purchased Sigma-Aldrich, St. Louis, MO, USA type VI-S (catalogue number not given)
T1 sequence (O42275 24-633): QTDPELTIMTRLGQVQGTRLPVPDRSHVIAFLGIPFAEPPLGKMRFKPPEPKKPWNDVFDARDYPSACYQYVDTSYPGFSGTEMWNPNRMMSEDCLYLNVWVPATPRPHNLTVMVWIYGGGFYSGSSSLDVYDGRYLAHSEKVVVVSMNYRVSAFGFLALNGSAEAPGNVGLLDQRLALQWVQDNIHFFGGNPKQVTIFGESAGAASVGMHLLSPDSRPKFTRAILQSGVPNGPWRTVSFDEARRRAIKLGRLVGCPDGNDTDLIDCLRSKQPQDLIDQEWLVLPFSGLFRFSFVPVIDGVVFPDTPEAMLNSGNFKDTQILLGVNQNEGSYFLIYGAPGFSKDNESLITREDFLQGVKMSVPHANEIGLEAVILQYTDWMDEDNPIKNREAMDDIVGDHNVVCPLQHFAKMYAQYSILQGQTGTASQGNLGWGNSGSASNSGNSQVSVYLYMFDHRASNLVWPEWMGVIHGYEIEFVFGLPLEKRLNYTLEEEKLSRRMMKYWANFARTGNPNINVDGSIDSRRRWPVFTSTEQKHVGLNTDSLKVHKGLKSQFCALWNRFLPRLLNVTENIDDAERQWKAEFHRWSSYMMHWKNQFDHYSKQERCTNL
Method: The bioautographic assay was performed by thin layer chromatography (TLC) according to the method proposed by Marston, Kissling and Hostettman. The extracts were solubilized in methanol (Merck) at 20 mg/mL, and a portion of 10 μL of this solution was applied on a TLC plate (silica gel 60 F254, Merck, Darmstadt, Germany), which was eluted with CHCl3:MeOH (9:1). The acetylcholinesterase enzyme (Electropardus electricous type VI-S, Sigma-Aldrich, St. Louis, MO, USA) solution was prepared by diluting 1 KU of the enzyme in 30 mL of Tris/HCl buffer, pH 7.8, with the addition of 30 mg of bovine serum albumin (BSA). The enzyme solution was sprayed on the TLC plate and incubated in a humid chamber at 37 °C for 20 min. The substrate solution was prepared using 1-naphthyl acetate (2.5 mg/mL) and Fast Blue B salt (2.5 mg/mL), and sprayed on the TLC plate after the incubation period. […] The result was expressed by the intensity of the white bands observed.

[6] = test system: Cytotoxicity, Agonist, vitamin D receptor (VDR); design: method as in PubChem Bioassay AID 743224; details: ref PubChem Bioassay AID 743224; cited from earlier work
Anticancer, Leukemia = test system: Anticancer, Leukemia; design: method as in PubChem Bioassay AID 328; details: ref PubChem Bioassay AID 328; cited from earlier work
Anti-Inflammatory model [7] = test system: Anti-Inflammatory model; design: method as in PubChem Bioassay AID 489035; details: ref PubChem Bioassay AID 489035; cited from earlier work
[8] = test system: Anti-Inflammatory model (counterscreen); design: method as in PubChem Bioassay AID 1318; details: ref PubChem Bioassay AID 1318; cited from earlier work
[9] = test system: Antagonist, constitutive androstane receptor (CAR); design: method as in PubChem Bioassay AID 1224838; details: ref PubChem Bioassay AID 1224838; cited from earlier work
Angiogenesis model = test system: Angiogenesis model; design: method as in PubChem Bioassay AID 575; details: ref PubChem Bioassay AID 575; cited from earlier work
Anti-Inflammatory model [10] = test system: Anti-Inflammatory model; design: method as in PubChem Bioassay AID 438; details: ref PubChem Bioassay AID 438; cited from earlier work
[11] = test system: Activators, heat shock response; design: method as in PubChem Bioassay AID 743228; details: ref PubChem Bioassay AID 743228; cited from earlier work
Agonist, AP-1 = test system: Agonist, AP-1; design: method as in PubChem Bioassay AID 1159528; details: ref PubChem Bioassay AID 1159528; cited from earlier work
[12] = test system: Cytotoxicity, Agonist, p53; design: method as in PubChem Bioassay AID 651633; details: ref PubChem Bioassay AID 651633; cited from earlier work
Anti-Inflammatory model [13] = test system: Anti-Inflammatory model; design: method as in PubChem Bioassay AID 1309; details: ref PubChem Bioassay AID 1309; cited from earlier work
Anti-Inflammatory model [14] = test system: Anti-Inflammatory model; design: method as in PubChem Bioassay AID 1267; details: ref PubChem Bioassay AID 1267; cited from earlier work
[15] = test system: Cytotoxicity, Agonist, RXR; design: method as in PubChem Bioassay AID 1159529; details: ref PubChem Bioassay AID 1159529; cited from earlier work
[16] = test system: Agonist, thyroid stimulating hormone receptor (TSHR); design: method as in PubChem Bioassay AID 1224895; details: ref PubChem Bioassay AID 1224895; cited from earlier work
[17] = test system: Cytotoxicity, Agonist, antioxidant response element (ARE); design: method as in PubChem Bioassay AID 743203; details: ref PubChem Bioassay AID 743203; cited from earlier work
Anticancer, Colon Tumor = test system: Anticancer, Colon Tumor; design: method as in PubChem Bioassay AID 771; details: ref PubChem Bioassay AID 771; cited from earlier work
[18] = test system: 1-acylglycerol-3-phosphate O-acyltransferase ABHD5; design: method as in PubChem Bioassay AID 493035; details: ref PubChem Bioassay AID 493035; cited from earlier work
[19] = test system: Anticancer, non-Hodgkin lymphoma; design: method as in PubChem Bioassay AID 651558; details: ref PubChem Bioassay AID 651558; cited from earlier work
[20] = test system: Cytotoxicity, Agonist, nuclear factor kappa B subunit 1; design: method as in PubChem Bioassay AID 1159515; details: ref PubChem Bioassay AID 1159515; cited from earlier work
[21] = design: method as in Dar et al. [63]; details: ref Dar et al. [63]; cited from earlier work

COc1cc([C@@H]2c3cc4c(cc3[C@H](O)[C@H]3COC(=O)[C@H]23)OCO4)cc(OC)c1OC [Podophyllotoxin, podophyllotoxin]
-: Inhibition of AChE TLC [5]
Active: Exper. Activity [2] | Exper. Activity [4] | Exper. Activity (Anticancer, Leukemia) | Exper. Activity [9] | Exper. Activity (Anti-Inflammatory model [10]) | Exper. Activity (Agonist, AP-1) | Exper. Activity (Anti-Inflammatory model [13]) | Exper. Activity [19]
Inactive: Exper. Activity [1] | Exper. Activity [3] | Exper. Activity [6] | Exper. Activity (Anti-Inflammatory model [7]) | Exper. Activity [8] | Exper. Activity (Angiogenesis model) | Exper. Activity [11] | Exper. Activity [12] | Exper. Activity (Anti-Inflammatory model [14]) | Exper. Activity [15] | Exper. Activity [16] | Exper. Activity [17] | Exper. Activity (Anticancer, Colon Tumor) | Exper. Activity [18] | Exper. Activity [20]
higher than 250 μg/mL: IC50 DPPH sequestration [21]
